Measured values reported in US20220251080A1, “SUBSTANTIALLY PURE VENETOCLAX AND AMORPHOUS VENETOCLAX IN A FREE DRUG PARTICULAT E FORM” (DR. REDDY'S LABORATORIES LIMITED, priority 2019, published 2022).

How the values were obtained:
[1] = Filtration characteristics (specific cake resistance); type: physicochemical; settings: filtration of the suspension from the process
From the text: (§1) As per the flow property measurement, powder obtained by reactive agglomeration has better flow indices (Carr's index and Hausner ratio) than powder obtained by solvent-antisolvent process, disclosed in example 24 of WO2017212431.
The term “specific cake resistance” as used herein refers to filter cake is formed by the substances that are retained on a filter. The filter cake grows in the course of filtration, becoming thicker as particulate matter is retained. With increasing layer thickness, the flow resistance of the filter cake increases. Specific cake resistance is a measure of this resistance offered by cake towards the flow.

[2] = Flow property measurement of powder (bulk density, tapped density, Hausner ratio, Carr's index); type: physicochemical; settings: for Carr's index: (tapped density-bulk density)/tapped density×100; for Tapped density: after mechanical tapping; for Hausner ratio: calculated from bulk and tapped density; for Bulk density: untapped powder sample
From the text: as §1
The term “bulk density” as used herein refers to the ratio of the mass to the volume (including the interparticulate void volume) of an untapped powder sample.
The term “tapped density” as used herein and it is obtained by mechanically tapping a graduated cylinder containing the sample until little further volume change is observed.
The tapping can be performed using different methods. The tapped density is calculated as mass divided by the final volume of the powder.
The term “carr's index” as used herein and it is calculated using below formula Carr Index =(tapped density-bulk density)/tapped density×100.
The term “hausner ratio” as used herein and it is calculated using below formula Hausner Ratio […]

Row | Specific cake resistance [1] | Carr's index [2] | Tapped density [2] [g/mL] | Hausner ratio [2] | Bulk density [2] [g/mL] | SMILES
1 | Filter media clogged | 29.8 | 0.289 | 1.4 | 0.203 | CC1(C)CCC(CN2CCN(c3ccc(C(=O)NS(=O)(=O)c4ccc(NCC5CCOCC5)c([N+](=O)[O-])c4)c(Oc4cnc5[nH]ccc5c4)c3)CC2)=C(c2ccc(Cl)cc2)C1 [Amorphous venetoclax obtained by Solvent-Anti solvent Proces] [4-(4-{[2-(4-chlorophenyl)-4,4dimethylcyclohex-1-en-1-yl]methyl}piperazin-1-yl)-N-({3-nitro-4-[(tetrahydro-2H-pyran-4ylmethyl)amino]phenyl}sulfonyl)-2-(1H-pyrrolo[2,3-1)]pyridin-5-yloxy)benzamide)]
2 | 2.73E+10 m/Kg | 25.8 | 0.442 | 1.3 | 0.328 | CC1(C)CCC(CN2CCN(c3ccc(C(=O)NS(=O)(=O)c4ccc(NCC5CCOCC5)c([N+](=O)[O-])c4)c(Oc4cnc5[nH]ccc5c4)c3)CC2)=C(c2ccc(Cl)cc2)C1 [Amorphous venetoclax obtained by reactive agglomeration proc] [4-(4-{[2-(4-chlorophenyl)-4,4dimethylcyclohex-1-en-1-yl]methyl}piperazin-1-yl)-N-({3-nitro-4-[(tetrahydro-2H-pyran-4ylmethyl)amino]phenyl}sulfonyl)-2-(1H-pyrrolo[2,3-1)]pyridin-5-yloxy)benzamide)]
